Experimental data: US5821386A (priority 1997, dated 1998)
Several values for one entry are separate records, joined by “and”; a condition that tells them apart may be missing. Equal values may be shown once. Entries after “also recorded” stand apart in the source; their conditions may differ. Read-outs that look alike come from different tables or passages of the source.

Tests used:
[1] = Eight hour time course of locomotor stimulation, cocaine alone and Compound 2 alone (Example 4); conditions: for p, two-way ANOVA, effect of Treatment: horizontal activity counts/10 min, eight hours; for p, one-way ANOVA, effect of Treatment: log10 horizontal activity counts
[2] = target: T1, human dopamine transporter (Homo sapiens, UniProt Q01959); assay: [125I]RTI-55 binding to dopamine transporter, C6-hDAT cells; design: expressed in transfected cells; host or cells: C6 cells (C6-hDAT); conditions: read-out: Binding to DA cloned transporter, [I125]RTI-55 Ki
[3] = target: T2, human serotonin transporter (Homo sapiens, UniProt P31645); assay: [125I]RTI-55 binding to serotonin transporter, HEK-hSERT cells
T2 construct: expressed in transfected cells; host or cells: HEK cells (HEK-hSERT)

[4] = target: T1, human dopamine transporter; assay: [3H]dopamine uptake by C6-hDAT cells; conditions: for IC50: Inhibition of DA uptake, IC50, C6-hDAT cells; for DA uptake/binding: ratio
Experimental: Drugs (10 mM stock solution) were dissolved in DMSO. The final DMSO concentration in the assay is 0.01 percent. Pipetting was performed with a Biomek 2000 robotic work station.
Uptake was initiated with the addition of [3H]DA (20 nM, specific acitivity 20-53 Ci/mmol) in a final volume of 500 μl. Mazindol (5 μM) was used to define nonspecific uptake. Cells were preincubated for 10 minutes, with drug before addition of neurotransmitter. Uptake was terminated after a 2 minute incubation by removing buffer, and the plate was placed on ice and washed twice with 1 ml ice cold phosphate-buffered saline.

[5] = target: T3, human norepinephrine transporter (Homo sapiens, UniProt P23975); assay: biochemical; format: binding
T3 construct: expressed in transfected cells; host or cells: HEK cells (HEK-hNET)

[6] = target: T3, human norepinephrine transporter; assay: cell-based; format: cell-based
[7] = target: T2, human serotonin transporter; assay: [3H]serotonin uptake by HEK-hSERT cells; format: cell-based; conditions: for IC50: Inhibition of 5HT uptake, IC50, HEK-hSERT cells; for 5HT uptake/binding: ratio; for 5HT/DA uptake: selectivity ratio; for inhibition of serotonin reuptake: Example 5
[8] = Interaction study: antagonism of cocaine-induced locomotor stimulation (Example 3); conditions: for effect on the stimulant effect of cocaine (words): IP, 20 mg/kg cocaine, mice; for p, one-way ANOVA, overall effect for treatment groups: log10 horizontal activity counts, 0-30 minutes
[9] = Dose response study of induced locomotor stimulation (Example 2, Table I); format: in vivo, male Swiss-Webster mice; conditions: IP; for Maximal Effect Relative to Cocaine / ED50: Table I; for ED50: Mus musculus, 30-60 minutes period, read-out: ED50 (dose producing 1/2 maximal stimulant activity)
[10] = IP, 10, 20 and 40 mg/kg cocaine
[11] = HEK-hNET cells, read-out: Binding to NE cloned transporter, [I125]RTI-55 Ki
[12] = HEK-hNET cells, read-out: Inhibition of NE uptake, IC50
[13] = human, hek-hnet and c6-hdat cells

T1 sequence (Q01959 whole entry): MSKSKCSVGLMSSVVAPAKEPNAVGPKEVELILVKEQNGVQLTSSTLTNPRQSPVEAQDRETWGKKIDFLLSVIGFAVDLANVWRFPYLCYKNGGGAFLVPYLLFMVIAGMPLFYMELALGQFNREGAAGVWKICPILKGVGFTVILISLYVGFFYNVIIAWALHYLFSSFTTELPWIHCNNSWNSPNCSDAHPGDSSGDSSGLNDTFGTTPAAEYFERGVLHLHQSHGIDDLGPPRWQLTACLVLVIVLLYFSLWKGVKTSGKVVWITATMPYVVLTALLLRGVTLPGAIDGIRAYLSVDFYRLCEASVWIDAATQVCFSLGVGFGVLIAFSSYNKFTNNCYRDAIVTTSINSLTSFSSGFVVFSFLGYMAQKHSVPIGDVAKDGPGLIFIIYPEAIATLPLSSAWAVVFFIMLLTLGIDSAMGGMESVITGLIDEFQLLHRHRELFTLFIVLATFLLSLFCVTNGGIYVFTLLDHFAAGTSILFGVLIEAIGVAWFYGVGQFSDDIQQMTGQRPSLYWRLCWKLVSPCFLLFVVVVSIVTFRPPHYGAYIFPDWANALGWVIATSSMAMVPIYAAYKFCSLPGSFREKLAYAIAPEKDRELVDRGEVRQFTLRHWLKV
T3 sequence (P23975 whole entry): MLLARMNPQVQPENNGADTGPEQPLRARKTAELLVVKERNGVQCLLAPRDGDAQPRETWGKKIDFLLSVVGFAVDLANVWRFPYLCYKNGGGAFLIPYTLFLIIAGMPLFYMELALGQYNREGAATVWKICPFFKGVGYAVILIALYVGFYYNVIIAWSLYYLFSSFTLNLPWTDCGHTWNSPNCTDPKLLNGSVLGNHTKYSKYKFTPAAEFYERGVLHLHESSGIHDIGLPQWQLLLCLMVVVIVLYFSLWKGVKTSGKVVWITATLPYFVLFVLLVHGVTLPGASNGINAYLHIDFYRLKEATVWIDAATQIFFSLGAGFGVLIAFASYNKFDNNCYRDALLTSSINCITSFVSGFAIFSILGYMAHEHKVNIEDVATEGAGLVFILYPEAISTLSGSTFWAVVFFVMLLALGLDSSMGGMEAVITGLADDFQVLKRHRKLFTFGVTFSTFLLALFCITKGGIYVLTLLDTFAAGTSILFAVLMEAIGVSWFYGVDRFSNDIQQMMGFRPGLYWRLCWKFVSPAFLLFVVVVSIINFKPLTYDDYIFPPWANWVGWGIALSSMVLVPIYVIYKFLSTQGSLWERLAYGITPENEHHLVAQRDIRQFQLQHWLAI
T2 sequence (P31645 whole entry): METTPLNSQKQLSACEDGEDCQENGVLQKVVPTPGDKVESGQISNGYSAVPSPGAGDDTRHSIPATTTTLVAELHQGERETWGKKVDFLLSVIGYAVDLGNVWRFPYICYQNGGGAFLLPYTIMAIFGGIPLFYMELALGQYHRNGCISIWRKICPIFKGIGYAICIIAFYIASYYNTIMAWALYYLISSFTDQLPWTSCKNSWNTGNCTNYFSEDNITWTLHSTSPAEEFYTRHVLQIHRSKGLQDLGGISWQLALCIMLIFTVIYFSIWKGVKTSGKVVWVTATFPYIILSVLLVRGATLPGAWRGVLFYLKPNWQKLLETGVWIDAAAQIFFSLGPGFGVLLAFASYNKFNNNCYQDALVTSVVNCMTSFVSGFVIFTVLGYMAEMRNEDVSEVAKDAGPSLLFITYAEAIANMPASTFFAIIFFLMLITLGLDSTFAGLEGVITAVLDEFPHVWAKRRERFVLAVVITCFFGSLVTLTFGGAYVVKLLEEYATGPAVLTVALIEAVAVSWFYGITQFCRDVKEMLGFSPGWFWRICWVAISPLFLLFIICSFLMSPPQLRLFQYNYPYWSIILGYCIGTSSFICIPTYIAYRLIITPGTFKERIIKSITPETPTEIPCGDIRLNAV

SMILES	Ki [2]	Ki [3]	IC50 [4]	DA uptake/binding [4]	IC50 [6, 12]	NE/DA uptake [6, 13]	NE uptake/binding ([6]; human, hek-hnet cells)	IC50 [7]	5HT uptake/binding [7]	5HT/DA uptake [7]	effect on the stimulant effect of cocaine (words) ([8]; 20 mg/kg)	p, one-way ANOVA, overall effect for treatment groups [8]	Maximal Effect Relative to Cocaine [9]	ED50 ([9]; mice)	other results
COC(=O)[C@H]1[C@@H](OC(=O)c2ccccc2)C[C@@H]2CC[C@H]1N2C [cocaine]	–	–	–	–	–	–	–	–	–	–	–	–	–	–	time of maximal stimulant effects ([1]; IP, 20 mg/kg cocaine): during the first 30 minutes; duration of stimulant effects [1, 10]: up to 3 hours; onset of stimulant effects [1, 10]: ≤ 10 min; dose at maximum effect ([1]; cocaine IP, first 30 minutes): 18.3 mg/kg; maximum effect estimated from fitted dose-response curve ([1]; cocaine IP, first 30 minutes, vehicle constant 3172): 6059 counts/10 min; p, two-way ANOVA, effect of Treatment [1]: 0.089; p, one-way ANOVA, effect of Treatment ([1]; 0-30 min): < 0.001
CCCNC1CC(c2ccc(Cl)c(Cl)c2)c2ccccc21 (stereo not shown) [Compound 9]	0.032 ± 0.006 µM	0.093 ± 0.009 µM	0.051 ± 0.021 µM	1.6	0.075 ± 0.035 µM	1.5	0.68	0.24 ± 0.07 µM	2.6	4.7	–	–	–	–	Ki [5, 11]: 0.11 ± 0.05 µM
CN(C1CC(c2ccc(Cl)c(Cl)c2)c2ccccc21)C(C)(C)C (stereo not shown) [Compound 7]	–	–	2.7 ± 1.5 µM	3.0	–	–	–	> 10 µM	–	–	Block the Effects of Cocaine in Mice; also recorded: antagonized the stimulant effect of cocaine; also recorded: lock the effects of cocaine in laboratory mice	< 0.5	–	–	effect on locomotor activity ([9]; mice): inhibited locomotor activity; also recorded: reducing locomotor activity
CC(C)N(C)C1CC(c2ccc(Cl)c(Cl)c2)c2ccccc21 (stereo not shown) [Compound 8]	0.22 ± 0.04 µM	–	0.053 ± 0.001 µM	0.24	–	–	–	–	–	–	–	–	–	–	–
CCNC1CC(c2ccc(Cl)c(Cl)c2)c2ccccc21 (stereo not shown) [Compound 4]	–	0.002 ± 0.0008 µM	0.061 ± 0.012 µM	7.5	–	–	–	0.013 ± 0.004 µM	6.5	0.21	–	–	1.07	3.9 mg/kg	–
CCN(C)C1CC(c2ccc(Cl)c(Cl)c2)c2ccccc21 (stereo not shown) [Compound 3]	–	–	0.27 ± 0.03 µM	6.9	–	–	–	0.024 ± 0.007 µM	1.5	0.10	–	–	0.93	10.8 mg/kg	–
CCCN(C)C1CC(c2ccc(Cl)c(Cl)c2)c2ccccc21 (stereo not shown) [Compound 2]	0.18 ± 0.1 µM	0.044 ± 0.006 µM	0.34 µM and 0.19 µM	1.4 and 1.1	0.64 µM and 0.42 µM	1.9 and 2.2	1.6	0.19 µM and 1.5 µM	–	–	antagonized the stimulant effect of cocaine	> 0.05	0.51	5.65 mg/kg	effect on the stimulant effect of cocaine (words) ([8]; listed as Compounds 2, 20 mg/kg): Block the Effects of Cocaine in Mice; dose at maximum effect ([1]; Compound 2 IP, 280-310 min): 12.9 mg/kg; maximum effect estimated from fitted dose-response curve ([1]; Compound 2 IP, 280-310 min, vehicle constant 399): 4581 counts/10 min; duration of stimulant effects ([1]; IP, Compound 2, 3 to 30 mg/kg): Up to Seven; p, two-way ANOVA, effect of Treatment [1]: < 0.001; p, one-way ANOVA, effect of Treatment ([1]; 280-310 min): < 0.001; Ki [5, 11]: 0.4 µM and 0.26 µM; inhibition of norepinephrine reuptake ([6]; Example 5): reduced inhibition of serotonin and norepinephrine reuptake; inhibition of serotonin reuptake [7]: reduced inhibition of serotonin and norepinephrine reuptake
CC(C)(C)NC1CC(c2ccc(Cl)c(Cl)c2)c2ccccc21 (stereo not shown) [Compound 6]	–	–	0.37 ± 0.17 µM	2.8	0.31 ± 0.05 µM	–	–	3.1 ± 1.2 µM	4.2	8.4	Block the Effects of Cocaine in Mice; also recorded: antagonized the stimulant effect of cocaine	< 0.5	–	506 mg/kg	NE uptake/binding ([6]; ratio): 2.1; NE/DA uptake ([6]; selectivity ratio): 0.84
CN(C)C1CC(c2ccc(Cl)c(Cl)c2)c2ccccc21 (stereo not shown) [Compound 1]	0.029 ± 0.006 µM	0.0031 ± 0.0012 µM	0.19 ± 0.02 µM	6.6	–	0.38	0.19	0.0067 ± 0.0022 µM	2.2	0.035	–	–	0.82	4.88 mg/kg	Ki ([5]; Binding to NE cloned transporter, [I125]RTI-55 Ki): 0.37 ± 0.06 µM; inhibition of norepinephrine reuptake [6]: selectively inhibits serotonin and norepinephrine reuptake; IC50 ([6]; Inhibition of NE uptake, IC50): 0.072 ± 0.04 µM; inhibition of serotonin reuptake [7]: selectively inhibits serotonin and norepinephrine reuptake
CN(Cc1ccccc1)C1CC(c2ccc(Cl)c(Cl)c2)c2ccccc21 (stereo not shown) [Compound 10]	–	–	0.55 ± 0.2 µM	4.6	–	–	–	3.7 ± 1.3 µM	21.	6.7	–	–	–	–	–
